Assay results: a melting point compilation (Tetko et al.; mined from patent text by program, amines drawn as free bases though some values may be those of a salt)

SMILES	melting point [°C]
C#CC[C@H]1CC[C@H](C(=O)O)CC1	84 to 86
Cc1cc(SCc2sc(-c3ccc(C(F)(F)F)cc3)nc2C)cc(C)c1OCC(=O)O	157 to 158
CCN(O)Cc1nnc2n1-c1ccc(Cl)cc1C(c1ccccc1)=NC2	154 to 157
CSc1ccc(C)cc1C(N)=S	160
COC(=O)c1cc2c(NC3CCC(O)CC3)nc(-c3ccccc3)nc2[nH]1 (stereo not drawn)	225 to 227
Cn1cc(-c2cc3cccnc3[nH]2)c2cc(C(N)=O)ccc21	330 to 332
CN1CCC(c2c(O)cc(O)c3c(=O)cc(-c4ccc(O)cc4Cl)oc23)C1CO (stereo not drawn)	> 300
Cc1nc(Sc2cc(C(=O)O)ccn2)sc1CC(=O)O	212 to 214
COc1ccc(C2=NN(c3ccc(CCBr)cc3)C(=O)[C@H]3CC=CC[C@@H]23)cc1OC (relative stereo)	126 to 127
CCNc1nc(C(C)C)nc(Cl)c1[N+](=O)[O-]	50
COc1cc(N)c(Cl)cc1C(=O)NC1CCN(CC2CCN(C(=O)c3ccco3)CC2)CC1	179 to 181
COc1ccc(-c2nc(C)c(C(=O)O)s2)cc1	129 to 131
N#Cc1cnc2sc(-c3ccccc3)cc2c1Nc1ccc2[nH]ccc2c1	> 245
CCCCCCCCCCCCCCOc1ccc2c(C)cc(=O)oc2c1	61 to 62
COc1ccc(C(=O)Nc2ccc3ccc(C=O)nc3n2)cc1	194
CCN(CC)c1nc(C)cc(O)n1	131 to 132
Cc1cc(C)cc(SCc2c(C(C)C)nc(C(C)C)c(CO)c2-c2ccc(F)cc2)c1	109 to 110
N#Cc1cc(C(F)(F)F)cc(Cl)c1N1CN(Br)C(C(F)(F)F)=CC1=O	166 to 167
COc1ccc(CCCCCCCCO)cc1	47 to 49
COc1ccc2nc(Cl)c(Cl)nc2c1	156 to 159

SMILES	melting point [°C]
O=C(c1ccccc1)c1sc2cc(O)ccc2c1-c1ccccc1	187 to 190
Fc1cc(Cl)cnc1Cl	38 to 39
COc1cc(-c2nn(C)c(C(F)(F)F)c2Cl)c(F)cc1[N+](=O)[O-]	115 to 116
CC1=NC(NC(=O)Nc2cccc(Br)c2)C(=O)N(CC(=O)N2CC3CCC(CC3)C2)c2c(C)cccc21 (stereo not drawn)	168 to 171
CCCC[C@@H](C)[C@@H](O)[C@H](NC)C(=O)O	248 to 249
Sc1ccc(-c2ccc(-c3ccc(S)c(S)c3)cc2)cc1S	171 to 172
CS(=O)(=O)Nc1cccc(Nc2nc(OC3CCCC3)c3cc[nH]c3n2)c1	203 to 205
Cc1nc(CC(N)=O)no1	112 to 114
CC(C)(C)C(=O)C(N)=O	69 to 70
CC=C1OCC2(CO1)COC(=CC)OC2 (stereo not drawn)	30
O=c1[nH]cnc2sccc12	256 to 258
O=C(CCl)NC(C(=O)O)c1cscn1 (stereo not drawn)	193 to 195
COc1cc(C)c(CCCCCCCCCC(=O)CCCCCCCCCCCC(=O)O)c(O)c1OC	63 to 64
CC(C)(C)OC(=O)N[C@H]1C=C[C@@H](CO)C1	68 to 70
Cc1c(CO)nc2c(NC(=O)C(C)(C)C)cccn12	186 to 187
O=c1cc(C(F)(F)C(F)(F)F)nc[nH]1	122 to 126
CCCCCCCCCCCCCCCCCCOc1cc(OCCCCC(=O)OC)cc(N(CC(=O)O)CC(=O)O)c1	91 to 94
Cc1cc(C)c2nc(NCCCN3CCCCC3)n(Cc3nc(C)ccc3O)c2c1	> 260
CC(C)c1cnn2c(O)cc(O)nc12	242 to 243
CCN1CC2CCCC2C1CNC(=O)c1cc(Cl)c(N)cc1OC (stereo not drawn)	128 to 129

Further lines, results first:

melting point [°C]	SMILES
81 to 85	NS(=O)(=O)Oc1ccccc1
138 to 140	CS(=O)C1CC(=O)N1CC(=O)NCc1ccccc1 (single isomer, unassigned; (-))
215 to 216	O=C(Nc1noc2ccccc12)N1CCN(c2nc(-c3ccccc3)no2)CC1
140 to 141	CNC(=O)COc1cccc(CCNC(=O)/C=C/c2cccnc2)c1
204 to 206	CC1C(C#N)=C(N)OC2=C1C(=O)CC(c1cccc3ccccc13)C2 (stereo not drawn)
88 to 90	CCNC(=O)C1=C(OC(C)C)c2cc(OC)ccc2S1=O (stereo not drawn)
131 to 133	CC(C)(C(=O)Nc1ccc(Cl)cc1)/C(F)=C/Br
180 to 181	COc1ccc(-c2c(N)cnc3ccc(Cl)cc23)c(OC)c1OC
157	COC(=O)c1cccc(C(=O)Nc2cccc3cc(Br)cnc23)c1
185	Cc1c(OCc2ccccn2)nn2c(-c3ccccc3)nnc2c1C
176 to 177	O=S(=O)(c1nc[nH]n1)C(F)(F)Br
225 to 227	CC(=O)Nc1ccccc1NS(=O)(=O)c1cc(C(=O)O)cc([N+](=O)[O-])c1Cl
248 to 250	Clc1cc2cc[nH]c2c2cccnc12
93	CCCCC(c1c[nH]cn1)c1cccc(CO)c1O (stereo not drawn)
155 to 156	CCCCc1nc2cccc(C(=O)OC)c2n1Cc1ccc(-c2ccccc2C#N)nc1
84.5 to 86	NS(=O)(=O)OCCOc1ccccc1Cl
110 to 111	CCOc1nn(-c2ccc(C(F)(F)F)cn2)cc1CCCOc1cccc(OC)c1CCC(=O)O
> 250	CCOc1cc2cc(C(=O)O)cc(-c3ccnc(Cl)c3)c2cc1OCC
145 to 146	Cc1oc(-c2ccccc2)nc1COc1ccc2oc(/C=C/CO)cc2c1

melting point [°C]	SMILES
45.1 to 46.1	CCCCc1ccc(C(=O)Oc2ccc(C#N)c(F)c2)nc1
171 to 173	O=C(O)c1ccc(C(=O)NOCCCc2ccccc2)cc1
225 to 227	NC(=O)C[C@H](NC(=O)OCc1ccccc1)C(=O)N[C@@H](Cc1ccccc1)[C@H](O)C(=O)O
111 to 112	CC1(C)CC(=O)Nc2ccccc21
172 to 175	O=C(Nc1ccccc1C(=O)O)OCc1ccccn1
152 to 153	CCOC(=O)C(=O)CC(=O)c1cn(Cc2ccccc2F)c2ccccc2c1=O
206	CCCCN1CCC(C(=O)O)(S(=O)(=O)c2ccc(OC)cc2)CC1
198 to 200	CSc1[nH]cc(CCc2ccccc2)c1[N+](=O)[O-]
69 to 70	CCOC(=O)CCc1cc(CCC(N)=O)cc(Cc2ccc(F)cc2)c1
66 to 67	CN(C)C(=O)[C@@H]1CCCN1C(=O)OCc1ccccc1
175 to 180	C#CC[C@@H](N)c1nc2cc(Cl)ccc2c(=O)n1Nc1ccccc1
96 to 98	CCOC(=O)c1c(-c2cccc(F)c2)c(Cl)n2c1CNCC2
160 to 162	CCOC(=O)c1cnc2cc(I)ccc2n1
142 to 144	CC(=O)Oc1ccc(CC(CCC(=O)O)N2C(=O)c3ccccc3C2=O)cc1 (stereo not drawn)
138 to 161	COC1C=C(C)C(=O)CC(C)(C)C1OC(=O)c1ccc(N)cc1 (stereo not drawn)
78 to 79	Nc1ccc(OCCCCCOc2ccc(N)cc2)cc1
167 to 169	CCC1Cn2c(ncc(C(=O)O)c2=O)-c2ccccc21 (stereo not drawn)
155 to 157	CCCCOC(=O)[C@H]1CN(c2ccc3c(c2)oc(=O)n3CC)C(=O)O1
154 to 155	Cc1cc(SCc2ccc(OCc3ccc(F)cc3)cc2)ccc1OCC(=O)O
